In ChEMBL document CHEMBL1201862, “PubChem BioAssay data set” (2004):
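48-hour exposure; five concentrations; linearly interpolated endpoints. Abbreviation: GI50, concentration required for 50% inhibition of growth.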 The source made the active and inactive calls. Rule as the data show it: active = GI50 up to about 1.1 µM and inactive = higher.

Columns and labels:
Assay in all cases: NCI tumour cell line growth inhibition, 48 h
A549 = system: A549
HCT-15 = system: HCT-15
SK-MEL-5 = system: SK-MEL-5
HCC 2998 = system: HCC 2998
SW-620 = system: SW-620
MDA-N = system: MDA-N
NCI-H460 = system: NCI-H460
HL-60 = system: HL-60
SF-295 = system: SF-295
TK-10 = system: TK-10
MCF7 = system: MCF7
CCRF-CEM = system: CCRF-CEM
OVCAR-8 = system: OVCAR-8
SK-MEL-28 = system: SK-MEL-28
RXF 393 = system: RXF 393
SR = system: SR
COLO 205 = system: COLO 205
SNB-75 = system: SNB-75
UACC-257 = system: UACC-257
MDA-MB-435 = system: MDA-MB-435
HT-29 = system: HT-29
HOP-92 = system: HOP-92
NCI/ADR-RES = system: NCI/ADR-RES
ACHN = system: ACHN
A498 = system: A498
OVCAR-4 = system: OVCAR-4
OVCAR-5 = system: OVCAR-5
PC-3 = system: PC-3
SK-OV-3 = system: SK-OV-3
NCI-H226 = system: NCI-H226
HCT-116 = system: HCT-116
NCI-H522 = system: NCI-H522
SF-268 = system: SF-268
IGROV-1 = system: IGROV-1
RPMI-8226 = system: RPMI-8226
T47D = system: T47D
M14 = system: M14
786-0 = system: 786-0
K562 = system: K562
SN12C = system: SN12C
SK-MEL-2 = system: SK-MEL-2
U-251 = system: U-251
EKVX = system: EKVX
MOLT-4 = system: MOLT-4
UO-31 = system: UO-31
BT-549 = system: BT-549
KM12 = system: KM12
LOX IMVI = system: LOX IMVI
CAKI-1 = system: CAKI-1
MDA-MB-231 = system: MDA-MB-231
DU-145 = system: DU-145
UACC-62 = system: UACC-62
NCI-H23 = system: NCI-H23
Hs-578T = system: Hs-578T
SF-539 = system: SF-539
OVCAR-3 = system: OVCAR-3
HOP-62 = system: HOP-62
SNB-19 = system: SNB-19
Malme-3M = system: Malme-3M

## CCCCCCCCCCCCCCC(C(=O)[O-])[n+]1ccccc1 (configuration not stated)
A549
  GI50: > 100 µM (inactive)
HCT-15
  GI50: > 100 µM
SK-MEL-5
  GI50: > 100 µM (inactive)
HCC 2998
  GI50: 97.3 µM (inactive)
SW-620
  GI50: > 100 µM (inactive)
MDA-N
  GI50: > 100 µM (inactive)
NCI-H460
  GI50: > 100 µM (inactive)
HL-60
  GI50: 98.4 µM (inactive)
SF-295
  GI50: > 100 µM (inactive)
TK-10
  GI50: 15.1 µM (inactive)
MCF7
  GI50: 16.1 µM (inactive)
CCRF-CEM
  GI50: > 100 µM (inactive)
OVCAR-8
  GI50: 98.6 µM (inactive)
SK-MEL-28
  GI50: > 100 µM (inactive)
RXF 393
  GI50: 20.4 µM (inactive)
SR
  GI50: > 100 µM (inactive)
COLO 205
  GI50: > 100 µM (inactive)
SNB-75
  GI50: > 100 µM (inactive)
UACC-257
  GI50: > 100 µM (inactive)
MDA-MB-435
  GI50: > 100 µM (inactive)
HT-29
  GI50: > 100 µM (inactive)
HOP-92
  GI50: > 100 µM (inactive)
NCI/ADR-RES
  GI50: > 100 µM (inactive)
ACHN
  GI50: > 100 µM (inactive)
A498
  GI50: > 100 µM (inactive)
OVCAR-4
  GI50: > 100 µM (inactive)
OVCAR-5
  GI50: 84.1 µM (inactive)
PC-3
  GI50: 18.8 µM (inactive)
SK-OV-3
  GI50: > 100 µM (inactive)
NCI-H226
  GI50: > 100 µM (inactive)
HCT-116
  GI50: > 100 µM (inactive)
NCI-H522
  GI50: > 100 µM (inactive)
SF-268
  GI50: > 100 µM (inactive)
IGROV-1
  GI50: > 100 µM (inactive)
RPMI-8226
  GI50: > 100 µM (inactive)
T47D
  GI50: > 100 µM (inactive)
M14
  GI50: > 100 µM (inactive)
786-0
  GI50: > 100 µM (inactive)
K562
  GI50: > 100 µM (inactive)
SN12C
  GI50: 23.4 µM (inactive)
SK-MEL-2
  GI50: > 100 µM (inactive)
U-251
  GI50: 28.6 µM (inactive)
EKVX
  GI50: > 100 µM (inactive)
MOLT-4
  GI50: > 100 µM (inactive)
UO-31
  GI50: > 100 µM (inactive)
BT-549
  GI50: > 100 µM (inactive)
KM12
  GI50: > 100 µM (inactive)
LOX IMVI
  GI50: > 100 µM (inactive)
CAKI-1
  GI50: > 100 µM (inactive)
MDA-MB-231
  GI50: > 100 µM (inactive)
DU-145
  GI50: > 100 µM (inactive)
UACC-62
  GI50: 77.3 µM (inactive)
NCI-H23
  GI50: > 100 µM (inactive)
Hs-578T
  GI50: > 100 µM (inactive)
SF-539
  GI50: > 100 µM (inactive)
OVCAR-3
  GI50: > 100 µM (inactive)
HOP-62
  GI50: > 100 µM (inactive)
SNB-19
  GI50: > 100 µM (inactive)

## COC(=O)C(CCC1C=CCC1)/N=C\c1ccccc1 (configuration not stated)
A549
  GI50: 49.9 µM (inactive)
HCT-15
  GI50: 43.6 µM
SK-MEL-5
  GI50: 32.1 µM (inactive)
HCC 2998
  GI50: 86.3 µM (inactive)
SW-620
  GI50: > 100 µM (inactive)
MDA-N
  GI50: 49.9 µM (inactive)
NCI-H460
  GI50: 44 µM (inactive)
HL-60
  GI50: 36.8 µM (inactive)
SF-295
  GI50: 57.7 µM (inactive)
TK-10
  GI50: 99.1 µM (inactive)
MCF7
  GI50: 46.8 µM (inactive)
CCRF-CEM
  GI50: 56 µM (inactive)
OVCAR-8
  GI50: 68.2 µM (inactive)
SK-MEL-28
  GI50: > 100 µM (inactive)
RXF 393
  GI50: 58.5 µM (inactive)
SR
  GI50: 38.3 µM (inactive)
COLO 205
  GI50: 48.8 µM (inactive)
SNB-75
  GI50: 93.3 µM (inactive)
UACC-257
  GI50: 38.2 µM (inactive)
MDA-MB-435
  GI50: 60.3 µM (inactive)
HT-29
  GI50: 50 µM (inactive)
HOP-92
  GI50: 67 µM (inactive)
NCI/ADR-RES
  GI50: 26.9 µM (inactive)
ACHN
  GI50: 73.5 µM (inactive)
A498
  GI50: 81.5 µM (inactive)
OVCAR-4
  GI50: 54.7 µM (inactive)
OVCAR-5
  GI50: > 100 µM (inactive)
PC-3
  GI50: 35.6 µM (inactive)
SK-OV-3
  GI50: > 100 µM (inactive)
NCI-H226
  GI50: 56.8 µM (inactive)
HCT-116
  GI50: 31.3 µM (inactive)
NCI-H522
  GI50: 54.2 µM (inactive)
SF-268
  GI50: 99.8 µM (inactive)
IGROV-1
  GI50: > 100 µM (inactive)
RPMI-8226
  GI50: 24.5 µM (inactive)
T47D
  GI50: 47.4 µM (inactive)
M14
  GI50: 46.2 µM (inactive)
786-0
  GI50: 66.2 µM (inactive)
K562
  GI50: 47.2 µM (inactive)
SN12C
  GI50: 60.4 µM (inactive)
SK-MEL-2
  GI50: 37.5 µM (inactive)
U-251
  GI50: 52.1 µM (inactive)
EKVX
  GI50: 44.8 µM (inactive)
MOLT-4
  GI50: 33.8 µM (inactive)
UO-31
  GI50: 51.9 µM (inactive)
BT-549
  GI50: 78.5 µM (inactive)
KM12
  GI50: 45 µM (inactive)
LOX IMVI
  GI50: 76.7 µM (inactive)
CAKI-1
  GI50: 50.2 µM (inactive)
MDA-MB-231
  GI50: 68.9 µM (inactive)
DU-145
  GI50: 97.9 µM (inactive)
UACC-62
  GI50: 74.8 µM (inactive)
NCI-H23
  GI50: 52.6 µM (inactive)
Hs-578T
  GI50: > 100 µM (inactive)
SF-539
  GI50: > 100 µM (inactive)
OVCAR-3
  GI50: 66.5 µM (inactive)
HOP-62
  GI50: 68.5 µM (inactive)
SNB-19
  GI50: 79.1 µM (inactive)

## CCCCCNC(=O)OC1CCn2c1nc1c2C(=O)C(C)=C(N2CC2)C1=O (configuration not stated)
A549
  GI50: 0.526 µM (active)
HCT-15
  GI50: 1.92 µM
SK-MEL-5
  GI50: 0.568 µM (active)
HCC 2998
  GI50: 0.311 µM (active)
SW-620
  GI50: 0.492 µM (active)
MDA-N
  GI50: 1.5 µM (inactive)
NCI-H460
  GI50: 0.218 µM (active)
HL-60
  GI50: 6.05 µM (inactive)
SF-295
  GI50: 1.2 µM (inactive)
TK-10
  GI50: 4.83 µM (inactive)
MCF7
  GI50: 0.453 µM (active)
CCRF-CEM
  GI50: 26.5 µM (inactive)
OVCAR-8
  GI50: 1.46 µM (inactive)
SK-MEL-28
  GI50: 1.41 µM (inactive)
RXF 393
  GI50: 0.543 µM (active)
SR
  GI50: 20.7 µM (inactive)
COLO 205
  GI50: 1.41 µM (inactive)
SNB-75
  GI50: 1.22 µM (inactive)
UACC-257
  GI50: 1.67 µM (inactive)
MDA-MB-435
  GI50: 1.62 µM (inactive)
HT-29
  GI50: 0.593 µM (active)
HOP-92
  GI50: 21.4 µM (inactive)
NCI/ADR-RES
  GI50: 2.56 µM (inactive)
ACHN
  GI50: 0.548 µM (active)
A498
  GI50: 1.75 µM (inactive)
OVCAR-4
  GI50: 1.3 µM (inactive)
OVCAR-5
  GI50: 3.05 µM (inactive)
PC-3
  GI50: 1.05 µM (active)
NCI-H226
  GI50: 2 µM (inactive)
HCT-116
  GI50: 1.24 µM (inactive)
NCI-H522
  GI50: 0.769 µM (active)
SF-268
  GI50: 0.946 µM (active)
IGROV-1
  GI50: 1.37 µM (inactive)
RPMI-8226
  GI50: 2.4 µM (inactive)
T47D
  GI50: 3.23 µM (inactive)
M14
  GI50: 1.45 µM (inactive)
786-0
  GI50: 0.455 µM (active)
K562
  GI50: 1.67 µM (inactive)
SN12C
  GI50: 1.43 µM (inactive)
SK-MEL-2
  GI50: 1.63 µM (inactive)
U-251
  GI50: 1.67 µM (inactive)
MOLT-4
  GI50: 10.7 µM (inactive)
UO-31
  GI50: 1.83 µM (inactive)
BT-549
  GI50: 1.67 µM (inactive)
KM12
  GI50: 1.64 µM (inactive)
LOX IMVI
  GI50: 0.229 µM (active)
CAKI-1
  GI50: 1.2 µM (inactive)
MDA-MB-231
  GI50: 2.01 µM (inactive)
DU-145
  GI50: 0.351 µM (active)
UACC-62
  GI50: 1.75 µM (inactive)
NCI-H23
  GI50: 1.24 µM (inactive)
Hs-578T
  GI50: 2.32 µM (inactive)
SF-539
  GI50: 2 µM (inactive)
OVCAR-3
  GI50: 1.79 µM (inactive)
Malme-3M
  GI50: 2.19 µM (inactive)
SNB-19
  GI50: 2.9 µM (inactive)
